Source: article PMC10794144, “A novel antibiotic class targeting the lipopolysaccharide transporter” (Nature, 2024)
Marks after values point to notes of the source that are not given here.

Tests used:
[1] = tested on: A. baumannii; assay: MIC, broth microdilution in CAMHB supplemented with human serum, read at 100% growth inhibition; type: cell-based, Acinetobacter baumannii
Description: MIC determinations were performed using the broth microdilution method and in line with CLSI guidelines M07 and M100 (refs. [37],[38]). Bacterial inocula were prepared by diluting a 0.5 McFarland suspension in CAMHB or lysogeny broth (LB) specifically for A. baylyi isolates. […] MIC values of all of the tested antibiotics were read as the lowest compound concentration inhibiting bacterial growth by naked eye or beyond which the OD600 ceased to decrease.

[2] = tested on: A. baumannii MDR isolates; assay: Single-step spontaneous mutation frequency; type: cell-based, Acinetobacter baumannii
Description: Molten Mueller–Hinton agar (19 ml) supplemented with 20% human serum was added to 1 ml of compound at 20× the final concentration, poured immediately into Petri dishes (100 mm diameter) and gently mixed. Then, 2–3 colonies from agar plates were inoculated into CAMHB and incubated overnight under shaking (150 rpm). […] The agar plates were incubated aerobically at 35 ± 2 °C.

## CN1C(=O)[C@H](CCCCN)NC(=O)[C@H](CCCN)NCc2cccnc2Sc2cccc(-c3ccc(C(=O)O)cc3)c2CNC(=O)[C@@H]1Cc1c[nH]c2ccccc12 [zosurabalpin]
[1]; LptF W271R vs parental
  Fold MIC increase: 4
[1]; LptF W271S vs parental
  Fold MIC increase: 16
[1]; LptG G40D vs parental
  Fold MIC increase: 8
[1]; LptG L36Q vs parental
  Fold MIC increase: 32
[1]; LpxM IS66 vs parental
  Fold MIC increase: 32
[1]; LpxM K285N vs parental
  Fold MIC increase: 4
[1]; LpxM L44stop vs parental
  Fold MIC increase: 32
[1]; LpxM W78stop vs parental
  Fold MIC increase: 32
[1]; adeS ISAba1 vs parental
  Fold MIC increase: 4 - 32 ^a
[1]; deletion of AGTGTGGAGTA 66nt upstream of adeR vs parental
  Fold MIC increase: 8
[1]; lpxM ISAba1 vs parental
  Fold MIC increase: 32 - 64 ^a
[2]; A. baumannii ACC00445, inoculum 3.30E+08, selection 2xMIC, 0.5 ug/ml
  PROPORTION_R: 1.70E-07
[2]; A. baumannii ACC00445, inoculum 3.30E+08, selection 4xMIC, 1 ug/ml
  PROPORTION_R: 6.50E-08
[2]; A. baumannii ACC00445, inoculum 3.30E+08, selection 8xMIC, 2 ug/ml
  PROPORTION_R: 3.10E-09
[2]; A. baumannii ACC00445, inoculum 3.30E+08, selection 16xMIC, 4 ug/ml
  PROPORTION_R: <3.1E-09
[2]; A. baumannii ACC00535, inoculum 3.50E+08, selection 4xMIC, 0.5 ug/ml
  PROPORTION_R: 1.50E-07
[2]; A. baumannii ACC00535, inoculum 3.50E+08, selection 8xMIC, 1 ug/ml
  PROPORTION_R: 8.90E-08
[2]; A. baumannii ACC00535, inoculum 3.50E+08, selection 16xMIC, 2 ug/ml
  PROPORTION_R: <2.9E-09
[2]; A. baumannii ACC01073, inoculum 2.80E+08, selection 2xMIC, 2 ug/ml
  PROPORTION_R: 1.10E-08
[2]; A. baumannii ACC01073, inoculum 2.80E+08, selection 4xMIC, 4 ug/ml
  PROPORTION_R: 7.30E-09
[2]; A. baumannii ACC01073, inoculum 2.80E+08, selection 8xMIC, 8 ug/ml
  PROPORTION_R: <3.6E-09
[2]; A. baumannii ACC01073, inoculum 2.80E+08, selection 16xMIC, 16 ug/ml
  PROPORTION_R: <3.6E-09
[2]; A. baumannii ACC01077, inoculum 2.80E+08, selection 2xMIC, 0.5 ug/ml
  PROPORTION_R: 3.60E-09
[2]; A. baumannii ACC01077, inoculum 2.80E+08, selection 4xMIC, 1 ug/ml
  PROPORTION_R: <3.6E-09
[2]; A. baumannii ACC01077, inoculum 2.80E+08, selection 8xMIC, 2 ug/ml
  PROPORTION_R: <3.6E-09
[2]; A. baumannii ACC01077, inoculum 2.80E+08, selection 16xMIC, 4 ug/ml
  PROPORTION_R: <3.6E-09
[2]; A. baumannii ACC01085_CDC AR307, inoculum 5.50E+08, selection 2xMIC, 0.5 ug/ml
  PROPORTION_R: 1.10E-06
[2]; A. baumannii ACC01085_CDC AR307, inoculum 5.50E+08, selection 4xMIC, 1 ug/ml
  PROPORTION_R: <1.8E-09
[2]; A. baumannii ATCC BAA-747, inoculum 7.50E+07, selection 8xMIC, 0.5 ug/ml
  PROPORTION_R: <1.3E-08
[2]; A. baumannii ATCC BAA-747, inoculum 7.50E+07, selection 16xMIC, 1 ug/ml
  PROPORTION_R: <1.3E-08
[2]; A. baumannii ROB08706, inoculum 5.00E+07, selection 2xMIC, 2 ug/ml
  PROPORTION_R: 4.00E-08
[2]; A. baumannii ROB08706, inoculum 5.00E+07, selection 4xMIC, 4 ug/ml
  PROPORTION_R: 6.00E-08
[2]; A. baumannii ROB08706, inoculum 5.00E+07, selection 8xMIC, 8 ug/ml
  PROPORTION_R: <2.0E-08
[2]; A. baumannii ROB08706, inoculum 5.00E+07, selection 16xMIC, 16 ug/ml
  PROPORTION_R: <2.0E-08
[2]; A. baumannii ROB08708, inoculum 2.40E+08, selection 4xMIC, 0.5 ug/ml
  PROPORTION_R: 1.10E-07
[2]; A. baumannii ROB08708, inoculum 2.40E+08, selection 8xMIC, 1 ug/ml
  PROPORTION_R: <4.2E-09
[2]; A. baumannii ROB08708, inoculum 2.40E+08, selection 16xMIC, 2 ug/ml
  PROPORTION_R: <4.2E-09
[2]; ACC00445, 2× MIC
  Single-step spontaneous mutation frequency: 2 × 10^−7
[2]; ACC00445, 4× MIC
  Single-step spontaneous mutation frequency: 7 × 10^−8
[2]; ACC00445, 8× MIC
  Single-step spontaneous mutation frequency: 3 × 10^−9
[2]; ACC00445, 16× MIC
  Single-step spontaneous mutation frequency: <3 × 10^−9
[2]; ACC00535, 2× MIC
  Single-step spontaneous mutation frequency: 2 × 10^−7
[2]; ACC00535, 4× MIC
  Single-step spontaneous mutation frequency: 2 × 10^−7
[2]; ACC00535, 8× MIC
  Single-step spontaneous mutation frequency: 9 × 10^−8
[2]; ACC00535, 16× MIC
  Single-step spontaneous mutation frequency: <3 × 10^−9
[2]; ACC01073, 2× MIC
  Single-step spontaneous mutation frequency: 1 × 10^−8
[2]; ACC01073, 4× MIC
  Single-step spontaneous mutation frequency: 7 × 10^−9
[2]; ACC01073, 8× MIC
  Single-step spontaneous mutation frequency: <4 × 10^−9
[2]; ACC01073, 16× MIC
  Single-step spontaneous mutation frequency: <4 × 10^−9
[2]; ACC01077, 2× MIC
  Single-step spontaneous mutation frequency: 4 × 10^−9
[2]; ACC01077, 4× MIC
  Single-step spontaneous mutation frequency: <4 × 10^−9
[2]; ACC01077, 8× MIC
  Single-step spontaneous mutation frequency: <4 × 10^−9
[2]; ACC01077, 16× MIC
  Single-step spontaneous mutation frequency: <4 × 10^−9
[2]; ACC01085/AR0307, 2× MIC
  Single-step spontaneous mutation frequency: 1 × 10^−6
[2]; ACC01085/AR0307, 4× MIC
  Single-step spontaneous mutation frequency: <2 × 10^−9
[2]; ATCC BAA-747, 2× MIC
  Single-step spontaneous mutation frequency: 2 × 10^−7
[2]; ATCC BAA-747, 4× MIC
  Single-step spontaneous mutation frequency: <1 × 10^−8
[2]; ATCC BAA-747, 8× MIC
  Single-step spontaneous mutation frequency: <1 × 10^−8
[2]; ATCC BAA-747, 16× MIC
  Single-step spontaneous mutation frequency: <1 × 10^−8
[2]; ROB08706, 2× MIC
  Single-step spontaneous mutation frequency: 4 × 10^−8
[2]; ROB08706, 4× MIC
  Single-step spontaneous mutation frequency: 6 × 10^−8
[2]; ROB08706, 8× MIC
  Single-step spontaneous mutation frequency: <2 × 10^−8
[2]; ROB08706, 16× MIC
  Single-step spontaneous mutation frequency: <2 × 10^−8
[2]; ROB08708, 2× MIC
  Single-step spontaneous mutation frequency: 2 × 10^−7
[2]; ROB08708, 4× MIC
  Single-step spontaneous mutation frequency: 1 × 10^−7
[2]; ROB08708, 8× MIC
  Single-step spontaneous mutation frequency: <4 × 10^−9
[2]; ROB08708, 16× MIC
  Single-step spontaneous mutation frequency: <4 × 10^−9
